Measured values published in PMC5642494 (Oncotarget, 2017).

How the values were obtained:
MCF7 cells = experiment: Multiplexed cell number, β-gal and TUNEL in MCF7; type: cell-based, human; conditions: 0.125 µM or 0.5 µM, 1-5 DT
Protocol: The viable cell number was determined by PI staining, the % of β-gal positive cells was determined using an antibody to β-gal, and the % of Tunel positive cells was determined by the incorporation of labelled dUTP. The data are plotted as the mean (+/- SD) of 2 experiments for CDK4 and CDK6 inhibitor treatment, and the mean of 6 experiments (+/- SD) for untreated samples. The duration of treatment is plotted along the x-axis in doubling times (DT) for MCF7 cells.
After treatment, cells were fixed, washed with PBS, permeabilized and β-gal was detected using anti-β-galactosidase antibody; for multiplexed assays, TUNEL staining was carried out using Roche TUNEL reagents as indicated above. Nuclei were also stained with PI for total cell counting. Plates were read in an Acumen Explorer Ex3 (TTP Labtech) and raw data were analyzed with Cellista software. Outputs were expressed as percentages of each identified subpopulation 1) positive β-gal, and 2) total cell number. The percentages of β-gal positive cells, TUNEL positive cells, and cell numbers were plotted in Microsoft Excel.

[1] = system: HR+ and HR- breast cancer cell lines; experiment: Proliferation after washouts (EdU Click-iT) in breast cancer lines; type: cell-based, human; conditions: HR+ versus HR- breast cancer cell lines; exposure 2 hr, 24 hr or 72 hrs followed by washout
Protocol: Images were SA-β-galactosidase immunocytochemical labeling taken by fluorescent microscopy using a Leica DMiL. […] SA-β-gal Cell samples were lysed after treatment with expression was determined using the Senescence Cells 100 μL lysis buffer and transferred to a 96-well plate. Histochemical Staining Kit (Sigma, CS0030) following 30 μL of each sample were transferred into deep well the vendor 's manual. Images were taken at 100x by bright plates using TECAN-EVO Workstation. Samples were field microscopy (Leica DMiL). treated for derivatization of the metabolites of interest and internal standards. For this, 50 μL of derivatization reagent Proliferation studies after washouts (EdU Click- and 80 μL of internal standard (IS, SupplementaryTable iT®) 1), were added with multidrop, plates were vortexed for 5 mins and let sit for one hour at 4 °C. The IS used were the Cells were plated onto poly-D-lysine D or 13C-labeled commercial analogues of nine of the ten coated 96-well plates at a density of 2,000-6,000 metabolites, prepared at 25 μM in water (Supplementary viable cells per well, and treated with abemaciblib or Table 1). The derivatization reagents (from Sigma), […] washout schedule shown on Supplementary Figure 1A. […] EdU Samples were analyzed by LC-MS/MS under the detection was performed using the Click-iT High Content conditions described below. […] Cell images were captured using a Cellomics Arrayscan VTI and analyzed Analysis of the derivatized-extracted samples with the Target Activation bio-application V.3 reading in 4 was carried out with an Agilent 6460 Triple Quadrupole channels at a magnification of 10X. […] The software relative levels and sub-cellular localization of EdU were for data collection and treatment was Agilent Masshunter determined through the respective intensities and locations Workstation. Mobile phases for chromatography were: of Alexa-488 fluorescence. mobile phase A: formic acid (5 mM) and ammonium formate (10 mM) in water; mobile phase B: acetonitrile. […]

SMILES: CC(=O)c1c(C)c2cnc(Nc3ccc(N4CCNCC4)cn3)nc2n(C2CCCC2)c1=O [palbociclib]
- TUNEL staining (MCF7 cells): only minor increases in TUNEL staining were observed and only after longer treatment times
- percentage of cells with β-gal staining compared with abemaciclib (MCF7 cells): lower
- DNA synthesis / proliferation as measured by EdU incorporation [1]: decrease in proliferation preferentially for HR+ cell lines; however, this effect was only observed after longer treatment times

SMILES: CN(C)C(=O)c1cc2cnc(Nc3ccc(N4CCNCC4)cn3)nc2n1C1CCCC1 [ribociclib]
- TUNEL staining (MCF7 cells): only minor increases in TUNEL staining were observed and only after longer treatment times
- percentage of cells with β-gal staining compared with abemaciclib (MCF7 cells): lower
